Patent US20010025028A1, “Methods of inhibiting bone resorption” (Merck & Co., Inc., priority 1998, published 2001)

Columns and labels:
[1] = tested on: co-culture of mouse bone marrow cells and MB 1.8 mouse osteoblasts; assay: Osteoclastogenesis in murine co-cultures of bone marrow cells and MB 1.8 osteoblasts (TRAP fluorescence or counting of osteoclast-like cells); format: cell-based; settings: FIG. 1
[2] = tested on: bone marrow cultures; settings: cited from earlier work

In the case of `CC1(O)CCOC(=O)C1` (racemic) [D,L-mevalonic acid lactone], the “reversal of lovastatin inhibition of osteoclastogenesis (TRAP fluorescence assay)” value ([1]; D,L-mevalonic acid lactone 1 mM together with 1 or 10 μM lovastatin, added at days 5 and 6, read on day 7) is reported as “reversal”.
In the case of `C[C@@](O)(CCO)CC(=O)O` [mevalonic acid], the “effect of added mevalonic acid on the inhibition of osteoclastogenesis by mevastatin” value ([2]; added to mevastatin) is given as “partially restored”.
In the case of `CC[C@H](C)C(=O)O[C@H]1C[C@@H](C)C=C2C=C[C@H](C)[C@H](CC[C@@H]3C[C@@H](O)CC(=O)O3)[C@H]21` [lovastatin], the “inhibition of osteoclastogenesis (tartrate resistant acid phosphatase activity, percent activity relative to no treatment)” value ([1]; lovastatin 1 and 10 μM added at days 5 and 6, TRAP activity measured on day 7) is reported as “inhibition of osteoclastogenesis”.
For `CC[C@H](C)C(=O)O[C@H]1CCC=C2C=C[C@H](C)[C@H](CC[C@@H]3C[C@@H](O)CC(=O)O3)[C@H]21` [mevastatin], the “inhibition of in vitro osteoclastogenesis formation” value [2] is listed as “inhibit in vitro osteoclastogenesis formation”.
